In patent US20190053492A1, “SUBSTITUTED PYRIDINE COMPOUNDS AS PESTICIDES” (Bayer CropScience Aktiengesellschaft, priority 2016, published 2019):

Legend:
[1] = test system: Ctenocephalides felis; assay: Ctenocephalides felis oral test; assay type: in vivo; details: application rate 100 ppm in citrated cattle blood, after 2 days, adult cat fleas
Procedure: Ctenocephalides felis—Oral Test Solvent: dimethyl sulphoxide To produce a suitable active ingredient formulation, 10 mg of active ingredient are mixed with 0.5 ml of dimethyl sulphoxide. Dilution with citrated cattle blood gives the desired concentration. About 20 unfed adult cat fleas (Ctenocephalides felis) are placed into a chamber which is closed at the top and bottom with gauze. A metal cylinder whose bottom end is closed with parafilm is placed onto the chamber. The cylinder contains the blood/active ingredient formulation, which can be imbibed by the fleas through the parafilm membrane. After 2 days, the kill in % is determined. 100% means that all of the fleas have been killed; 0% means that none of the fleas have been killed.

[2] = log P by HPLC on reversed-phase column (C 18), EEC Directive 79/831 Annex V.A8; assay type: physicochemical; details: 55° C.; for LOGP_HCOOH: log P (HCOOH)
Procedure: Temperature: 55° C. […] Called log P (HCOOH) in the table. […] Called log P (neutral) in the table.

[3] = test system: Lucilia cuprina; assay: Lucilia cuprina test; assay type: in vivo; details: application rate 100 ppm, after 2 days, L1 larvae
Procedure: Lucilia cuprina Test Solvent: dimethyl sulphoxide To produce a suitable active ingredient formulation, 10 mg of active ingredient are mixed with 0.5 ml of dimethyl sulphoxide, and the concentrate is diluted with water to the desired concentration. About 20 L1 larvae of the Australian sheep blowfly (Lucilia cuprina) are transferred into a test vessel containing minced horsemeat and the active ingredient formulation of the desired concentration. After 2 days, the kill in % is determined. 100% means that all the larvae have been killed; 0% means that no larvae have been killed.

[4] = test system: Spodoptera frugiperda; assay: Spodoptera frugiperda spray test; assay type: in vivo; details: after 7 days, maize leaf discs
In short: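 Maize leaf discs were sprayed with compound formulated in acetone/DMF and emulsifier-containing water, dried, then infested with Spodoptera frugiperda caterpillars. Percent kill was scored after 7 days, from 100% (all dead) to 0% (none dead).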

[5] = test system: Phaedon cochleariae; assay: Phaedon cochleariae spray test; assay type: in vivo; details: after 7 days, Chinese cabbage leaf discs
In short: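 Chinese cabbage leaf discs sprayed with compound in acetone/DMF and emulsifier-containing water, then infested with mustard beetle larvae once dry. Efficacy in % scored after 7 days (100% = all larvae killed, 0% = none).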

[6] = acidic range at pH 2.7, 0.1% aqueous formic acid and acetonitrile, HPLC on reversed-phase column (C 18)
[7] = log P, neutral range, HPLC on reversed-phase column (C 18)
[8] = acidic range pH 2.7, 0.1% aqueous formic acid and acetonitrile, reversed-phase column (C 18)

| SMILES | efficacy (kill in %) [1] | LOGP_HCOOH [2, 6] | LOGP_NEUTRAL [2, 7] | efficacy (kill in %) [3] | efficacy (caterpillars killed) ([4]; application rate 100 g/ha) | efficacy (caterpillars killed) ([4]; application rate 500 g/ha) | efficacy (beetle larvae killed) ([5]; application rate 500 g/ha) | LOGP_HCOOH [2, 8] | efficacy (beetle larvae killed) ([5]; application rate 100 g/ha) | LOGP_NEUTRAL ([2]; log P (neutral), HPLC reversed-phase column (C 18)) | pest or weed control at 100 ppm ([1]; Ctenocephalides felis, po, 48 h, read-out: efficacy (kill in %)) | chromatographic logP ([2]; reversed-phase HPLC column (C 18), pH 2.7, LC-MS acidic range, pH 2.7, 0.1% formic acid/acetonitrile, read-out: log P (acidic) / log P (HCOOH)) | pest or weed control at 100 g/ha ([4]; Spodoptera frugiperda, foliar, 168 h, application rate 100 g/ha, read-out: efficacy (caterpillars killed)) | pest or weed control at 500 g/ha ([4]; Spodoptera frugiperda, foliar, 168 h, application rate 500 g/ha, read-out: efficacy (caterpillars killed)) | pest or weed control at 100 g/ha ([5]; Phaedon cochleariae, foliar, 168 h, application rate 100 g/ha, read-out: efficacy (beetle larvae killed)) | pest or weed control at 500 g/ha ([5]; Phaedon cochleariae, foliar, 168 h, application rate 500 g/ha, read-out: efficacy (beetle larvae killed)) |
| --- | --- | --- | --- | --- | --- | --- | --- | --- | --- | --- | --- | --- | --- | --- | --- | --- |
| CCCCNC(=O)c1cc(-c2ccc(OC(F)(F)F)cc2)cc(NC(=O)C2CC2)n1 [Example I-113] | 100% | 4.18 | 4.06 | 100% | 83% | 100% | 100% | – | – | – | – | – | – | – | – | – |
| Cc1cc(-c2cc(NC(=O)C3CC3)nc(C(=O)NCc3ccc(C#N)cc3)c2)ccc1OC(F)(F)F [Example I-098] | 100% | – | 4.11 | 100% | 100% | 100% | 100% | 4.21 | 100% | – | – | – | – | – | – | – |
| N#Cc1c(F)cc(CNC(=O)c2cc(-c3ccc(C(F)(F)C(F)(F)F)c(F)c3)cc(NC(=O)C3CC3)n2)cc1F [Example I-250] | 100% | – | – | 95% | 100% | 100% | 100% | 4.56 | 100% | 4.50 | – | – | – | – | – | – |
| N#Cc1ccc(CNC(=O)c2cc(-c3ccc(OC(F)(F)F)cc3)cc(NC(=O)C3CC3)n2)cc1F [Example I-080] | 100% | – | 3.87 | 100% | 83% | 100% | 100% | 4.01 | 100% | – | – | – | – | – | – | – |
| CN(Cc1ccc(C#N)cc1)C(=O)c1cc(-c2ccc(C(F)(F)F)cc2)cc(NC(=O)C2CC2)n1 [Example I-043] | 100% | – | 3.58 | 100% | – | 100% | 100% | 3.67 | – | – | – | – | – | – | – | – |
| CC(C)C(=O)N(C)c1cc(-c2ccc(OC(F)(F)F)cc2)cc(C(=O)NCc2ccc(C#N)cc2)n1 [Example I-217] | 80% | 4.02 | 3.89 | 100% | 100% | 100% | 83% | – | – | – | – | – | – | – | – | – |
| N#Cc1ccc(CNC(=O)c2cc(-c3ccc(OC(F)(F)F)cc3)cc(NC(=O)C3CC(F)(F)C3)n2)cc1 [Example I-213] | 100% | 4.14 | 4.02 | 100% | 100% | – | 100% | – | 100% | – | – | – | – | – | – | – |
| N#Cc1ccc(CNC(=O)c2cc(-c3ccc(C(F)(F)F)cc3)cc(NC(=O)C3CC3)n2)cc1 [Example I-005] | 100% | – | – | 100% | 100% | 100% | 100% | 3.73 | 100% | – | – | – | – | – | – | – |
| O=C(NC1CC1)c1cc(-c2ccc(OC(F)F)cc2)cc(NC(=O)C2CC2)n1 [Example I-030] | 100% | – | 2.83 | 90% | 83% | 100% | 100% | 2.94 | 100% | – | – | – | – | – | – | – |
| O=C(NCc1ccc(-c2ncon2)cc1)c1cc(-c2ccc(OC(F)(F)F)cc2)cc(NC(=O)C2CC2)n1 [Example I-094] | 100% | – | 3.84 | 100% | – | 100% | 100% | 3.96 | 100% | – | – | – | – | – | – | – |
| CC(C)C(=O)Nc1cc(-c2ccc(C(F)(F)F)cc2)cc(C(=O)NCc2ccc(C#N)cc2)n1 [Example I-015] | 98% | – | 3.85 | 100% | 100% | 100% | 100% | 3.91 | 83% | – | – | – | – | – | – | – |
| N#Cc1ccc(CNC(=O)c2cc(-c3ccc(SC(F)(F)C(F)F)cc3)cc(NC(=O)C3CC3)n2)cc1 [Example I-178, N-(4-Cyanobenzyl)-6-[(cyclopropylcarbonyl)amino]-4-{4-[(1,1,2,2-tetrafluoroethyl)sulphanyl]phenyl}pyridine-2-carboxamide] | – | 3.81 | – | 100% | – | – | – | – | – | – | 100% | 3.81 | 100% | 100% | 100% | 100% |
| N#Cc1cc(F)c(CNC(=O)c2cc(-c3ccc(OC(F)(F)F)cc3)cc(NC(=O)C3CC3)n2)c(F)c1 [Example I-082] | 100% | – | 4.01 | 100% | 100% | 100% | 100% | 4.12 | 100% | – | – | – | – | – | – | – |
| N#Cc1ccc(CNC(=O)c2cc(-c3ccc(S(=O)(=O)C(F)(F)F)cc3)cc(NC(=O)C3CC3)n2)cc1 [Example I-096] | 100% | – | 3.47 | 100% | 100% | 100% | 100% | – | 100% | – | – | – | – | – | – | – |
| CC(C)(C#N)NC(=O)c1cc(-c2ccc(OC(F)(F)F)cc2)cc(NC(=O)C2CC2)n1 [Example I-108] | 100% | – | 3.64 | 90% | 100% | 83% | 83% | 3.77 | – | – | – | – | – | – | – | – |
| CC(C)C(=O)Nc1cc(-c2ccc(OC(F)(F)F)cc2)cc(C(=O)NCc2c(F)cc(C#N)cc2F)n1 [Example I-070] | 98% | – | 4.15 | 100% | – | 83% | 100% | 4.31 | – | – | – | – | – | – | – | – |
